Tested on: SW-620 cells
Test: Human Colon Carcinoma Clonogenic Assay, SW-620
Type: cell-based
Conditions: SW-620, 2 days with drug, colonies after approximately 2 weeks
Protocol: Human Colon Carcinoma Clonozenic Assay. Human colon carcinoma cells are seeded into 6 well plates in volumes of 3 mL and allowed to incubate overnight (37° C., 5% CO2, 95% air). SW-620 cells are seeded at 7×10^5 per well; HCT-8 cells are seeded at 5×10^5 per well; HT-29 cells are seeded at 4×10^5 cells per well. Serially diluted drugs are prepared at 200 times the final concentration, and 15 μL are added to each of duplicate wells. Cells are incubated with drug for 2 days, rinsed once with 1 mL of trypsin+EDTA, and then trypsinized with the same trypsin solution. After trituration and centrifugation at 750×g for 3 minutes, the cells are suspended in serum-free growth medium and counted using an electronic particle counter. An agarose mixture appropriate for the cloning of each cell line is made using 10% fetal bovine serum in growth medium (SW-620-0.35% agarose, HCT-8 and HT-29-0.4% agarose). […] One; milliliter of each of these cell suspensions is added to duplicate wells of 6 well plates previously prepared with 10% serum/growth medium/1% agarose plugs. The cells in these plates are incubated for approximately 2 weeks in the incubator and stained with 1 mL per well of 1 mg/mL iodonitrotetrazolium violet stain. The visible colonies are counted with an electronic optical colony counter and the clonogenicity of treated cells calculated in comparison to untreated control cells.

CCN(CC)CCCCNc1cc2c(cn1)cc(-c1c(Cl)cccc1Cl)c(=O)n2C [Example F, 3-(2,6-dichlorophenyl)-7-[4-(diethylamino)butylamino]-1-methyl-1H-[1,6]naphthyridin-2-one]
IC50: > 5000 nM

CN1CCN(CCOc2ccc(Nc3cc4c(cn3)cc(-c3c(Cl)cccc3Cl)c(=O)n4C)cc2)CC1 [Example S, 3-(2,6-dichlorophenyl)-1-methyl-7-[(4-(2-(4-methylpiperazin-1-yl)ethoxy)phenyl)amino]-1H-[1,6]naphthyridin-2-one]
IC50: 2800 nM

Reference: patent US6150359A, “Naphthyridinones for inhibiting protein tyrosine kinase and cell cycle kinase mediated cellular proliferation” (Warner-Lambert Company, priority 2000, dated 2000)
